Test system: 991263-137-R1-J2-PDC complex spheroid viability
Assay: Anticancer human tumor 991263-137-R1-J2-PDC patient-derived colon adenocarcinoma cell line growth inhibition [POLQ]
Settings: for IC50: curve of first compound; for viability, T/C: stronger effect = lower value
Method in brief: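 Patient-derived tumour cells were co-cultured with HUVEC and mesenchymal stem cells as multicellular spheroids at 37 °C. They were treated with POLQ inhibitors (novobiocin, ART-558, RP6685) alone or combined with other agents. Top concentrations were at or near clinical Cmax (otherwise 10 microM; SN-38 at 1 microM), decreasing in half-log steps.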

[1] = second compound 0.0316 µM, first compound 0.0316 µM
[2] = second compound 0.0316 µM, first compound 0.1 µM
[3] = second compound 0.0316 µM, first compound 0.316 µM
[4] = second compound 0.0316 µM, first compound 1 µM
[5] = second compound 0.0316 µM, first compound 3.16 µM
[6] = second compound 0.0316 µM, first compound 10 µM
[7] = second compound 0.1 µM, first compound 0.0316 µM
[8] = second compound 0.1 µM, first compound 0.1 µM
[9] = second compound 0.1 µM, first compound 0.316 µM
[10] = second compound 0.1 µM, first compound 1 µM
[11] = second compound 0.1 µM, first compound 3.16 µM
[12] = second compound 0.1 µM, first compound 10 µM
[13] = second compound 0.316 µM, first compound 0.0316 µM
[14] = second compound 0.316 µM, first compound 0.1 µM
[15] = second compound 0.316 µM, first compound 0.316 µM
[16] = second compound 0.316 µM, first compound 1 µM
[17] = second compound 0.316 µM, first compound 3.16 µM
[18] = second compound 0.316 µM, first compound 10 µM
[19] = second compound 1 µM, first compound 0.0316 µM
[20] = second compound 1 µM, first compound 0.1 µM
[21] = second compound 1 µM, first compound 0.316 µM
[22] = second compound 1 µM, first compound 1 µM
[23] = second compound 1 µM, first compound 3.16 µM
[24] = second compound 1 µM, first compound 10 µM
[25] = second compound 3.16 µM, first compound 0.0316 µM
[26] = second compound 3.16 µM, first compound 0.1 µM
[27] = second compound 3.16 µM, first compound 0.316 µM
[28] = second compound 3.16 µM, first compound 1 µM
[29] = second compound 3.16 µM, first compound 3.16 µM
[30] = second compound 3.16 µM, first compound 10 µM
[31] = second compound 10 µM, first compound 0.0316 µM
[32] = second compound 10 µM, first compound 0.1 µM
[33] = second compound 10 µM, first compound 0.316 µM
[34] = second compound 10 µM, first compound 1 µM
[35] = second compound 10 µM, first compound 3.16 µM
[36] = second compound 10 µM, first compound 10 µM
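Note: spheroids exposed to compounds for 7 days before readout.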
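Throughout, for viability, T/C: 100% = DMSO vehicle control viability.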

For `O=C(Nc1ccc(O)c(NS(=O)(=O)c2ccc(F)cc2)c1)c1ccc(-c2ccccc2)cc1` + Cc1cccc(N(C)C(=O)C2C(O)CCN2c2nc(C)cc(C(F)(F)F)c2C#N)c1, the IC50 (second compound 0.0316 µM) was > 10 µM, the IC50 (second compound 0.1 µM) was > 10 µM and the IC50 (second compound 0.316 µM) was > 10 µM. The IC50 (second compound 1 µM) was > 10 µM, the IC50 (second compound 3.16 µM) was > 10 µM and the IC50 (second compound 10 µM) was > 10 µM. For the same compound, the viability, T/C [1] was 103%, the viability, T/C [2] was 99.6% and the viability, T/C [3] was 90.9%. It also gave a viability, T/C [4] of 101%, a viability, T/C [5] of 87.2% and a viability, T/C [6] of 92%. For the same compound, the viability, T/C [7] was 96.8%, the viability, T/C [8] was 95.7% and the viability, T/C [9] was 113%. The viability, T/C [10] was 94.8%, the viability, T/C [11] was 99% and the viability, T/C [12] was 91%. For the same compound, the viability, T/C [13] was 98.3%, the viability, T/C [14] was 97.5% and the viability, T/C [15] was 103%. The viability, T/C [16] was 80.9%, the viability, T/C [17] was 99.6% and the viability, T/C [18] was 86.5%. The viability, T/C [19] was 99.2%, the viability, T/C [20] was 99% and the viability, T/C [21] was 106%. For the same compound, the viability, T/C [22] was 94.2%, the viability, T/C [23] was 103% and the viability, T/C [24] was 80.1%. The viability, T/C [25] was 96.4%, the viability, T/C [26] was 96.2% and the viability, T/C [27] was 95.2%. It also gave a viability, T/C [28] of 109%, a viability, T/C [29] of 105% and a viability, T/C [30] of 85.8%. For the same compound, the viability, T/C [31] was 93.7%, the viability, T/C [32] was 95.9% and the viability, T/C [33] was 90.5%. It also gave a viability, T/C [34] of 96.8%, a viability, T/C [35] of 105% and a viability, T/C [36] of 87.5%.

With `O=C(Nc1ccc(O)c(NS(=O)(=O)c2ccc(F)cc2)c1)c1ccc(-c2ccccc2)cc1` + Nc1ccc(C#CCN(C(=O)Cc2ncc(C(F)(F)F)cc2C(F)(F)F)c2ccc(F)cc2)nn1 the IC50 (second compound 0.0316 µM) was > 10 µM, the IC50 (second compound 0.1 µM) was > 10 µM and the IC50 (second compound 0.316 µM) was > 10 µM. The IC50 (second compound 1 µM) was > 10 µM, the IC50 (second compound 3.16 µM) was > 10 µM and the IC50 (second compound 10 µM) was > 10 µM. For the same compound, the viability, T/C [1] was 97.7%, the viability, T/C [2] was 108% and the viability, T/C [3] was 107%. It also gave a viability, T/C [4] of 104%, a viability, T/C [5] of 119% and a viability, T/C [6] of 100%. It also gave a viability, T/C [7] of 111%, a viability, T/C [8] of 97.5% and a viability, T/C [9] of 108%. For the same compound, the viability, T/C [10] was 107%, the viability, T/C [11] was 107% and the viability, T/C [12] was 107%. The viability, T/C [13] was 101%, the viability, T/C [14] was 105% and the viability, T/C [15] was 107%. It also gave a viability, T/C [16] of 105%, a viability, T/C [17] of 114% and a viability, T/C [18] of 101%. It also gave a viability, T/C [19] of 96.2%, a viability, T/C [20] of 100% and a viability, T/C [21] of 104%. It also gave a viability, T/C [22] of 105%, a viability, T/C [23] of 97.2% and a viability, T/C [24] of 102%. The viability, T/C [25] was 107%, the viability, T/C [26] was 108% and the viability, T/C [27] was 95.7%. For the same compound, the viability, T/C [28] was 109%, the viability, T/C [29] was 97.4% and the viability, T/C [30] was 95.3%. It also gave a viability, T/C [31] of 102%, a viability, T/C [32] of 110% and a viability, T/C [33] of 94.5%. It also gave a viability, T/C [34] of 104%, a viability, T/C [35] of 92.5% and a viability, T/C [36] of 101%.

In the case of `CNCc1ccc(-c2[nH]c3cc(F)cc4c3c2CCNC4=O)cc1` + COC1C(OC(N)=O)C(O)C(Oc2ccc3c(O)c(NC(=O)c4ccc(O)c(CC=C(C)C)c4)c(=O)oc3c2C)OC1(C)C, the IC50 (second compound 0.0316 µM) is reported as > 10 µM, the IC50 (second compound 0.1 µM) is reported as > 10 µM and the IC50 (second compound 0.316 µM) is reported as > 10 µM. For the same compound, the IC50 (second compound 1 µM) was > 10 µM, the IC50 (second compound 3.16 µM) was > 10 µM and the IC50 (second compound 10 µM) was > 10 µM. For the same compound, the viability, T/C [1] was 85.7%, the viability, T/C [2] was 101% and the viability, T/C [3] was 94%. For the same compound, the viability, T/C [4] was 97.1%, the viability, T/C [5] was 121% and the viability, T/C [6] was 103%. It also gave a viability, T/C [7] of 106%, a viability, T/C [8] of 104% and a viability, T/C [9] of 109%. For the same compound, the viability, T/C [10] was 98.5%, the viability, T/C [11] was 101% and the viability, T/C [12] was 95.9%. The viability, T/C [13] was 105%, the viability, T/C [14] was 91.6% and the viability, T/C [15] was 106%. For the same compound, the viability, T/C [16] was 100%, the viability, T/C [17] was 99.6% and the viability, T/C [18] was 98.5%. It also gave a viability, T/C [19] of 82.1%, a viability, T/C [20] of 111% and a viability, T/C [21] of 117%. The viability, T/C [22] was 104%, the viability, T/C [23] was 110% and the viability, T/C [24] was 97.3%. The viability, T/C [25] was 92.2%, the viability, T/C [26] was 112% and the viability, T/C [27] was 111%. The viability, T/C [28] was 106%, the viability, T/C [29] was 119% and the viability, T/C [30] was 102%. The viability, T/C [31] was 107%, the viability, T/C [32] was 110% and the viability, T/C [33] was 105%. The viability, T/C [34] was 102%, the viability, T/C [35] was 119% and the viability, T/C [36] was 106%.

Reference: PubChem BioAssay AID1963828 (Molecular Pharmacology Branch, DTP, NCI, 2024)
